35 substances from US9084770B2, “Modulation of insulin like growth factor I receptor expression in cancer” (Antisense Therapeutics, Ltd., priority 2008, dated 2015) can be followed below.

The first data set concerns human IGF-IR mRNA. Kind of data set: Antisense inhibition of human IGF-IR mRNA levels by quantitative RT-PCR (Table 1). The data set is classed as cell-based. To be noted: as shown in Table 1. Further details: %INHIB (human IGF-IR mRNA levels): concentration or dose not given beside the values. An excerpt:
Treatment of A549 cell cultures with oligonucleotides targeting IGF-IR is as described in WO 2004/072284.
Quantitation of IGF-IR mRNA levels was accomplished by RT-PCR using the ABI PRISM (trademark) 7600, 7700, or 7900 Sequence Detection System (PE-Applied Biosystems, Foster City, Calif.) according to manufacturer's instructions. This is a closed-tube, non-gel-based, fluorescence detection system which allows high-throughput quantitation of PCR products in real-time. As opposed to standard PCR in which amplification products are quantitated after the PCR is completed, products in real-time quantitative PCR are quantitated as they accumulate. This is accomplished by including in the PCR reaction an oligonucleotide probe that anneals specifically between the forward and reverse PCR primers, and contains two fluorescent dyes. A reporter dye (e.g., FAM or JOE, obtained from either PE-Applied Biosystems, Foster City, Calif., Operon Technologies Inc., Alameda, Calif. or Integrated DNA Technologies Inc., Coralville, Iowa) is attached to the 5′-end of the probe and a quencher dye (e.g., TAMRA, obtained from either PE-Applied Biosystems, Foster City, Calif., Operon Technologies Inc., Alameda, Calif. or Integrated DNA Technologies Inc., Coralville, Iowa) is attached to the 3′-end of the probe. When the probe and dyes are intact, reporter dye emission is quenched by the proximity of the 3′ quencher dye. During amplification, annealing of the probe to the target sequence creates a substrate that can be cleaved by the 5′-exonuclease activity of Taq polymerase. […] With each cycle, additional reporter dye molecules are cleaved from their respective probes, and the fluorescence intensity is monitored at regular intervals by laser optics built into the ABI PRISM (trademark) Sequence Detection System. In each assay, a series of parallel reactions containing serial dilutions of mRNA from untreated control samples generates a standard curve that is used to quantitate the percent inhibition after antisense oligonucleotide treatment of test samples.
PCR reagents were obtained from Invitrogen Corporation, (Carlsbad, Calif.). RT-PCR reactions were carried out by adding 20 μL PCR cocktail (2.5×PCR buffer minus MgCl2, 6.6 mM MgCl2, 375 μM each of dATP, dCTP, […] and dGTP, 375 nM each of forward primer and reverse primer, 125 nM of probe, 4 Units RNAse inhibitor, 1.25 Units PLATINUM (registered trademark) Taq, 5 Units MuLV reverse transcriptase, and 2.5×ROX dye) to 96-well plates containing 30 μL total RNA solution (20-200 ng). The RT reaction was carried out by incubation for 30 minutes at 48° C. Following a 10 minute incubation at 95° C. to activate the PLATINUM (trademark) Taq, 40 cycles of a two-step PCR protocol were carried out: 95° C. for 15 seconds (denaturation) followed by 60° C. for 1.5 minutes (annealing/extension).
Gene target quantities obtained by RT-PCR are normalized using either the expression level of GAPDH, a gene whose expression is constant, or by quantifying total RNA using RiboGreen (trademark) (Molecular Probes, Inc. Eugene, Oreg.). GAPDH expression is quantified by RT-PCR, by being run simultaneously with the target, multiplexing, or separately. Total RNA is quantified using RiboGreen (trademark) RNA quantification reagent (Molecular Probes, Inc. Eugene, Oreg.). Methods of RNA quantification by RiboGreen (trademark) are taught in Jones et al., 1998.
Probes and primers to human IGF-IR were designed to hybridize to the IGF-IR nucleotide sequence, using published sequence information (GenBank accession number NM000875 (SEQ ID NO:76) or M69229 (SEQ ID NO:77) which is the 5′ untranslated of the IGF-IR gene sequence (see FIG. 6).
In accordance with the present invention, a series of antisense compounds were designed to target different regions of the human IGF-IR mRNA or the 5′ untranslated region, using published sequences set forth in NM000875 (SEQ ID NO:77) and M69229 (SEQ ID NO:76). […]
Turning to “323767 (antisense CCAGCGTGTCTCTCAAATGG; listed as DNA, chemistry not fully specified) [compound 323767]”, the “inhibition of IGF-IR expression (lead compounds)” value is “demonstrated inhibition”. “175307 (antisense AAGTCTCAAACTCAGTCTTC; listed as DNA, chemistry not fully specified) [compound 175307]”: the “inhibition of IGF-IR expression (lead compounds)” value is reported as “demonstrated inhibition”.

Staying with this data set, now noted: quantitative RT-PCR; averages from 3 experiments.
Regarding “323707 (antisense GAGATTGGTCATCTCGAAGA; listed as DNA, chemistry not fully specified) [compound 323707]”, the “%INHIB (human IGF-IR mRNA levels)” value came out at 20%. “323767 (antisense CCAGCGTGTCTCTCAAATGG; listed as DNA, chemistry not fully specified) [compound 323767]”: the “%INHIB (human IGF-IR mRNA levels)” value is reported as 84%. Same read-out and setting: the same measure for “323701 (antisense TTGGAGATGAGCAGGATGTG; listed as DNA, chemistry not fully specified) [compound 323701]”: 65%. Same read-out and setting: with “323758 (antisense GAGACCGGAGATAACTTTTG; listed as DNA, chemistry not fully specified) [compound 323758]” the figure was 29%; with “323746 (antisense TTCTCAGCCTCGTGGTTGCA; listed as DNA, chemistry not fully specified) [compound 323746]”, 62%. On the same count and under the same terms, the same measure for “323729 (antisense ATGTTCCAGCTGTTGGAGCC; listed as DNA, chemistry not fully specified) [compound 323729]”: 72%; for “175326 (antisense CCCAAATCCAGGACACACAC; listed as DNA, chemistry not fully specified) [compound 175326]”: 74%; for “323769 (antisense CATCACTGACCTCTTTCTAT; listed as DNA, chemistry not fully specified) [compound 323769]”: 0%. “323716 (antisense CACAGGTCCCCACATTCCTT; listed as DNA, chemistry not fully specified) [compound 323716]”: the “%INHIB (human IGF-IR mRNA levels)” value is given as 42%.

In the case of “323736 (antisense AGGAAATTCTCAAAGACTTT; listed as DNA, chemistry not fully specified) [compound 323736]”, the “%INHIB (human IGF-IR mRNA levels)” value was 43%.

Turning to “323715 (antisense CCACAATGTAGTTATTGGAC; listed as DNA, chemistry not fully specified) [compound 323715]”, the “%INHIB (human IGF-IR mRNA levels)” value turned out to be 65%. For “323727 (antisense GGAGTAATTCCCTTCTAGCT; listed as DNA, chemistry not fully specified) [compound 323727]”, the “%INHIB (human IGF-IR mRNA levels)” value was 21%. The same measure, in the same setting: the same measure for “175294 (antisense GAAGTCCGGGTCACAGGCGA; listed as DNA, chemistry not fully specified) [compound 175294]”: 77%; for “323741 (antisense GTTATCCACTCTGCTCTCAA; listed as DNA, chemistry not fully specified) [compound 323741]”: 57%. For “323748 (antisense GCAGCCCAGCTTCTCAGCCT; listed as DNA, chemistry not fully specified) [compound 323748]”, the “%INHIB (human IGF-IR mRNA levels)” value is 77%. “323755 (antisense GGAACGTACACATCAGCAGC; listed as DNA, chemistry not fully specified) [compound 323755]”: the “%INHIB (human IGF-IR mRNA levels)” value was 36%. Consider “323717 (antisense CTGGACACAGGTCCCCACAT; listed as DNA, chemistry not fully specified) [compound 323717]”, for which the “%INHIB (human IGF-IR mRNA levels)” value came to 45%. Same read-out and setting: with “175306 (antisense AAGTCCGGGTCACAGGCGAG; listed as DNA, chemistry not fully specified) [compound 175306]” the figure was 54%; with “175312 (antisense TTTCAAACCCGGAGAGGCAG; listed as DNA, chemistry not fully specified) [compound 175312]”, 31%; with “323720 (antisense CTCATTGTTGATGGTGGTCT; listed as DNA, chemistry not fully specified) [compound 323720]”, 81%. In the case of “175305 (antisense ATCCAGGACACACACAAAGC; listed as DNA, chemistry not fully specified) [compound 175305]”, the “%INHIB (human IGF-IR mRNA levels)” value stood at 81%.

For the substance “323766 (antisense GCCCATGTCAGTTAAGGGTT; listed as DNA, chemistry not fully specified) [compound 323766]”, the “%INHIB (human IGF-IR mRNA levels)” value came to 69%.

Take “323696 (antisense CCAGACTTCATTCCTTTTAT; listed as DNA, chemistry not fully specified) [compound 323696]”: the “%INHIB (human IGF-IR mRNA levels)” value amounted to 44%. Still for that read-out and setting: with “323702 (antisense CGGCCTTGGAGATGAGCAGG; listed as DNA, chemistry not fully specified) [compound 323702]” the figure was 66%; with “323739 (antisense CTGCTCTCAAAGAAAGGGTA; listed as DNA, chemistry not fully specified) [compound 323739]”, 58%. Still for that read-out and setting: with “175296 (antisense ATGCTGGTAAACAAGAGCCC; listed as DNA, chemistry not fully specified) [compound 175296]” the figure was 57%; with “175324 (antisense TGAAGGTCACAGCCGAGGCG; listed as DNA, chemistry not fully specified) [compound 175324]”, 57%. Same read-out and setting: with “323743 (antisense TTGCAGCTGTGGATATCGAT; listed as DNA, chemistry not fully specified) [compound 323743]” the figure was 53%; with “175295 (antisense AACAAGAGCCCCAGCCTCGC; listed as DNA, chemistry not fully specified) [compound 175295]”, 76%.

On to “323735 (antisense ATTTTGTCTTTGGAGCAGTA; listed as DNA, chemistry not fully specified) [compound 323735]”, for which the “%INHIB (human IGF-IR mRNA levels)” value is 65%. For the substance “175307 (antisense AAGTCTCAAACTCAGTCTTC; listed as DNA, chemistry not fully specified) [compound 175307]”, the “%INHIB (human IGF-IR mRNA levels)” value was determined as 86%. Still for that read-out and setting: with “323721 (antisense GTTGTACTCATTGTTGATGG; listed as DNA, chemistry not fully specified) [compound 323721]” the figure was 73%.

Regarding “323713 (antisense GTTATTGGACACCGCATCCA; listed as DNA, chemistry not fully specified) [compound 323713]”, the “%INHIB (human IGF-IR mRNA levels)” value is 31%. On the same count and under the same terms, the same measure for “323718 (antisense ATGGTGGTCTTCTCACACAT; listed as DNA, chemistry not fully specified) [compound 323718]”: 69%; for “175319 (antisense GAAACAATACTCCGAAGGGC; listed as DNA, chemistry not fully specified) [compound 175319]”: 63%.
